Columns and labels:
[1] = Solubility test 2: 5 mg in 0.5 ml ion-exchanged water, macroscopic (10 mg/ml); type: physicochemical; conditions: room temperature, 5 minutes shaking
Description: (§1) The solubility tests were conducted by the following methods of tests 1 and 2:
5 mg of a methine compound is fed into a test tube, to which 0.5 ml of ion-exchanged water is added, the resultant mixture is shaken at room temperature for 5 minutes, and the solubility thereof is macroscopically confirmed (10 mg/ml solution).

[2] = test system: LOX, a human melanoma cell line; assay: Nude mice bearing human melanoma LOX (survival); type: in vivo, human (in male athymic Swiss nu/nu mouse); conditions: i.p.; 5 mg/kg day 1; 7.5 mg/kg days 2, 5; 10 mg/kg days 7, 9, 13, 15
Description: Nude Mice Bearing Human Melanoma as a Model System
LOX, a human melanoma cell line, grown subcutaneously in nude mice was excised, trypsinized to yield a single cell suspension using a metal grid with a […]. Red blood cells were lysed by incubation with 0.17 molar ammonium chloride at 4° C. for 20 minutes. Five million viable trypan blue negative cells made up in 0.1 ml of Dulbecco modified Eagles' medium (DME) were injected into the peritoneal cavity of a male athymic Swiss nu/nu mouse. The control group and each treatment group consisted of 5 to 10 mice. Treatment was commenced the following day by intraperitoneal injection.
Ten control mice received 0.25 ml of 2% dextrose on those days the treated groups were injected with the compounds of this invention. The compounds of the General Formulas (I) to (II) used in this invention which were tested are listed in Table 6 below and the results obtained are shown in Table 6 of the accompanying drawings. T/C is the ratio, expressed as a percentage of the mean survival age of the treated group to the mean survival age of the untreated control group.

[3] = Solubility test 1: 5 mg in 5 ml ion-exchanged water, macroscopic (1 mg/ml); type: physicochemical; conditions: room temperature, 5 minutes shaking, 1 mg/ml
Description: as §1
5 mg of a methine compound is fed into a test tube, to which 5 ml of ion-exchanged water is added, the resultant mixture is shaken at room temperature for 5 minutes, and the solubility thereof is macroscopically confirmed (1 mg/ml solution).

[4] = Solubility in 5% glucose solution for injection, macroscopic (10 mg/ml); type: physicochemical; conditions: room temperature, 5 minutes shaking
Description: The solubility of each of the compounds of the present invention synthesized in Example 1 in 5% glucose solution for injection was examined.
5 mg of a methine compound was fed into a test tube, to which 0.5 ml of 5% glucose solution for injection was added, the resultant mixture was shaken at room temperature for 5 minutes, and the solubility thereof was macroscopically confirmed (10 mg/ml solution).

[5] = test system: human colonic epithelial carcinoma LS174T; assay: Activity against human colonic epithelial carcinoma LS174T in nude mouse (tumor inhibition); type: in vivo, human (transplanted in BALB/C nu/nu mice); conditions: i.v.; 20 mg/kg days 1, 3, 7, 11, 16, 18; 25 mg/kg day 9
Description: Activity of the present pharmaceutical compositions against human colonic epithelial carcinoma LS174T was determined by use of nude mouse as follows:
As the human colonic epithelial carcinoma cell lines LS174T, there was used the established line by trypsinizing piece of LS174T obtained from the operating theatre of the original adenocarcinoma of colon in such that the piece becomes suitable for cultivation. When this cultured cells LS174T are hypodermically injected to a nude mouse, the cells can be easily grown in the body of the nude mouse as a moderately to sufficiently differentiated human colonic epithelial carcinoma. The cells LS174T produce CEA in high level and can proliferate in hamster cheek pouches or immunodeprived mice, so that it has been proven that the cells LS174T have neoplastic properties.
BALB/C nu/nu mice (male, five weeks age) available from Charles River Japan Inc. were placed in an atmosphere having no pathogen. Tumors formed by the hypodermic injection of human colonic epithelial carcinoma cell lines LS174T into the mice were cut off under the aseptic condition, and the surrounding skin and connective tissue of the tumor tissues as well as the necrotic tissue located in the center of the tumor tissues were removed. The tumor tissues were Cut in the form of 3-5 mm square, and the resulting one tissue was charged into a needle for transplantation to hypodermically transplant it into the mouse. The resulting mice were randomly divided into control group (six mice) and treating group (six mice). The intravenous administration of the pharmaceutical composition into the treating group started next day. The amount and schedule of the administration were determined based on the experience, mainly the knowledge from the pretoxic-test data of LD 50 and LD 10.5% glucose solution or physiologic saline for injection was injected to the control group in the same amount as that to be intravenously injected to the treating group.
The pharmaceutical composition was dissolved in 5% glucose solution or physiologic saline for injection in such that the amount of the pharmaceutical composition contained in the glucose solution or physiologic saline is 5 ml per one kg of weight of the mouse to be injected so as to prepare an injection liquid. When the proliferation of tumor in the control group reached exponential growth phase and the size of the tumor became detectable by touch with hand, i.e., generally three weeks after the transplantation, the experiment was stopped. Then the tumor of each mouse was cut off and the weight of the resulting tumor was measured by use of chemical balance. Regarding each group, tumor inhibition percentage between the treating group and control group was calculated.

Structure (SMILES): CCn1c(=Cc2sc3ccccc3[n+]2CCOCCOCCOC)sc(=C2Sc3ccc(OC)cc3N2C)c1=O [Compound 1-13]
- Solubility 10 mg/mL [1]: soluble
- T/C (mean survival age of treated group to untreated control group) [2]: 124%
- Solubility 1 mg/mL [3]: soluble
- Solubility 10 mg/mL [4]: soluble
- Tumor Inhibition Ratio [5]: 45.2%

— patent US5599825A, “Water-soluble methine compound and pharmaceutical composition for treatment of cancer comprising the same” (Fuji Photo Film Co., Ltd., priority 1994, dated 1997)
